Measured values as given in paper PMC3640414 (Journal of Medicinal Chemistry, 2013).
Like-named read-outs stand apart in the source and are kept apart here.

Tests used:
MV4;11 (AML) cells = experiment: MTS cytotoxicity assay, MV4;11 cells; type: cell-based; details: Homo sapiens, viability after 72 h
[1] = system: HeLa (cervical adenocarcinoma) cells; experiment: WST-1 viability assay, HeLa cells; type: cell-based; details: Homo sapiens, read-out: IC50, HeLa (cervical adenocarcinoma)
[2] = system: U2OS (osteosarcoma) cells; experiment: WST-1 viability assay, U2OS cells; type: cell-based; details: Homo sapiens, read-out: IC50, U2OS (osteosarcoma)
PHIP(1) = target: T1, PHIP(1) (Homo sapiens, UniProt Q8WWQ0); experiment: ALPHA selectivity panel, PHIP(1); type: binding; details: 25 μM compound, ALPHA assay
T1 construct: the bromodomains from ATAD2, BAZ1A, BAZ2A, BAZ2B, BRD9, BRPF3, CECR2, GCN5L2, PHIP(1), PB1(1), and TIF1α; made in house
Procedure: (§1) The ALPHA assay was also used to determine the selectivity of 8, 9, and 17, 21–23 for BRD4(1) over the bromodomain of CREBBP (Table 2). […] The selectivity of 8 was further evaluated across a phylogenetically diverse range of bromodomains (Figure 5).
(§2) Bromodomain AlphaScreen assays were carried out as previously described.[24],[30] All experiments were carried out in duplicate on the same plate.

BAZ2B = target: T2, BAZ2B (Homo sapiens, UniProt Q9UIF8); experiment: ALPHA selectivity panel, BAZ2B; type: binding; details: 25 μM compound, ALPHA assay
T2 construct: the bromodomains from ATAD2, BAZ1A, BAZ2A, BAZ2B, BRD9, BRPF3, CECR2, GCN5L2, PHIP(1), PB1(1), and TIF1α; made in house
T2 sequence (Q9UIF8 2060-2164 limits assumed): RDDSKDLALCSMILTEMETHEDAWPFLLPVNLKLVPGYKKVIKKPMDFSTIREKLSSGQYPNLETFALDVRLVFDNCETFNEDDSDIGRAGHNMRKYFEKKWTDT
Procedure: as §1, §2

CECR2 = target: T3, CECR2 (Homo sapiens, UniProt Q9BXF3); experiment: ALPHA selectivity panel, CECR2; type: binding; details: 25 μM compound, ALPHA assay
T3 construct: the bromodomains from ATAD2, BAZ1A, BAZ2A, BAZ2B, BRD9, BRPF3, CECR2, GCN5L2, PHIP(1), PB1(1), and TIF1α; made in house
T3 sequence (Q9BXF3 434-538 limits assumed): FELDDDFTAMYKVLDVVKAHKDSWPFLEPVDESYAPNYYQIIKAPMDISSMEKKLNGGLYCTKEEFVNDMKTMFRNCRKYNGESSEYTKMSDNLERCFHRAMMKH
Procedure: as §1, §2

BRPF3 = target: T4, BRPF3 (Homo sapiens, UniProt Q9ULD4); experiment: ALPHA selectivity panel, BRPF3; type: binding; details: 25 μM compound, ALPHA assay
T4 construct: the bromodomains from ATAD2, BAZ1A, BAZ2A, BAZ2B, BRD9, BRPF3, CECR2, GCN5L2, PHIP(1), PB1(1), and TIF1α; made in house
T4 sequence (Q9ULD4 589-693 limits assumed): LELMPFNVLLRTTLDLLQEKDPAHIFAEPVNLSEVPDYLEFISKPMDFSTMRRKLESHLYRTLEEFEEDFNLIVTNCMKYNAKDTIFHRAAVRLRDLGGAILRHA
Procedure: as §1, §2

GCN5L2 = target: T5, GCN5L2 (Homo sapiens, UniProt Q92830); experiment: ALPHA selectivity panel, GCN5L2; type: binding; details: 25 μM compound, ALPHA assay
T5 construct: the bromodomains from ATAD2, BAZ1A, BAZ2A, BAZ2B, BRD9, BRPF3, CECR2, GCN5L2, PHIP(1), PB1(1), and TIF1α; made in house
T5 sequence (Q92830 728-832 limits assumed): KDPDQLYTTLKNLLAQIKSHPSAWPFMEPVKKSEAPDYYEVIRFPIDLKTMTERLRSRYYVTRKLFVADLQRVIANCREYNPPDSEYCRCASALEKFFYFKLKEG
Procedure: as §1, §2

ATAD2 = target: T6, ATAD2 (Homo sapiens, UniProt Q6PL18); experiment: ALPHA selectivity panel, ATAD2; type: binding; details: 25 μM compound, ALPHA assay
T6 construct: the bromodomains from ATAD2, BAZ1A, BAZ2A, BAZ2B, BRD9, BRPF3, CECR2, GCN5L2, PHIP(1), PB1(1), and TIF1α; made in house
T6 sequence (Q6PL18 980-1092 limits assumed): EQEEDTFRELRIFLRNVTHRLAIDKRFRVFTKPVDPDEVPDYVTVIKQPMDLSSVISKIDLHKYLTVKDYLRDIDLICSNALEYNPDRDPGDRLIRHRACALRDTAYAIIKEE
Procedure: as §1, §2

[3] = system: A549 (lung adenocarcinoma) cells; experiment: MTS cytotoxicity assay, A549 cells; type: cell-based; details: 100 μM, 72 h
Source text: (§3) We also investigated the effects of 8 and 9 in two lung adenocarcinoma cell lines, A549 and H1975. […] H1975 appeared to be somewhat more sensitive to these compounds, a finding confirmed by a clonogenic survival assay (Supporting Information Figure S5).
(§4) Viability of MV4;11, H549, and H1975 cells was monitored by MTS-based CellTiter 96 AQueous nonradioactive cell proliferation assay (Promega, Madison, WI). Viability of U2OS and HeLa cells was monitored by WST-based cell proliferation kit (Roche, Mannheim, Germany). Further details are provided in Supporting Information

TIF1α = target: T7, TIF1α (Homo sapiens, UniProt O15164); experiment: ALPHA selectivity panel, TIF1α; type: binding; details: 25 μM compound, ALPHA assay
T7 construct: the bromodomains from ATAD2, BAZ1A, BAZ2A, BAZ2B, BRD9, BRPF3, CECR2, GCN5L2, PHIP(1), PB1(1), and TIF1α; made in house
T7 sequence (O15164 899-1004 limits assumed): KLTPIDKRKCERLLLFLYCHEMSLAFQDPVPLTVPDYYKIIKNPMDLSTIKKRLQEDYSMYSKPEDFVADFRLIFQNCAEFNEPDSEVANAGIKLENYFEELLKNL
Procedure: as §1, §2

PB1(1) = target: T8, PB1(1) (Homo sapiens, UniProt Q86U86); experiment: ALPHA selectivity panel, PB1(1); type: binding; details: 25 μM compound, ALPHA assay
T8 construct: the bromodomains from ATAD2, BAZ1A, BAZ2A, BAZ2B, BRD9, BRPF3, CECR2, GCN5L2, PHIP(1), PB1(1), and TIF1α; made in house
T8 sequence (Q86U86 41-151 limits assumed): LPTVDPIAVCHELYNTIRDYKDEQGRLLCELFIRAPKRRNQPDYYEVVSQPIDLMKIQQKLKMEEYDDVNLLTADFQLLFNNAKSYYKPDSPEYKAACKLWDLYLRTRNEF
Procedure: as §1, §2

[4] = system: H1975 (lung adenocarcinoma) cells; experiment: MTS cytotoxicity assay, H1975 cells; type: cell-based; details: 100 μM, 72 h
Source text: as §3, §4

CREBBP bromodomain = target: T9, CREBBP bromodomain (Homo sapiens, UniProt Q92793); experiment: AlphaScreen peptide displacement assay (ALPHA), CREBBP; type: binding; details: 25 μM compound
T9 construct: made in house
T9 sequence (Q92793 1085-1192 limits assumed): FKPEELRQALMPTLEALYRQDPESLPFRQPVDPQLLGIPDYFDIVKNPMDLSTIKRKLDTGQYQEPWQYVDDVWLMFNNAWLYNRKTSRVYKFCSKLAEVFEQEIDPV

BRD9 = target: T10, BRD9 (Homo sapiens, UniProt Q9H8M2); experiment: ALPHA selectivity panel, BRD9; type: binding; details: 25 μM compound, ALPHA assay
T10 construct: the bromodomains from ATAD2, BAZ1A, BAZ2A, BAZ2B, BRD9, BRPF3, CECR2, GCN5L2, PHIP(1), PB1(1), and TIF1α; made in house
T10 sequence (Q9H8M2 136-240 limits assumed): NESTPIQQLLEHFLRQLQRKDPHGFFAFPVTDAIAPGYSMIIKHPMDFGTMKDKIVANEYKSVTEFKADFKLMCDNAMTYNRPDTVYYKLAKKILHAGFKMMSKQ
Procedure: as §1, §2

BAZ1A = target: T11, BAZ1A (Homo sapiens, UniProt Q9NRL2); experiment: ALPHA selectivity panel, BAZ1A; type: binding; details: 25 μM compound, ALPHA assay
T11 construct: the bromodomains from ATAD2, BAZ1A, BAZ2A, BAZ2B, BRD9, BRPF3, CECR2, GCN5L2, PHIP(1), PB1(1), and TIF1α; made in house
T11 sequence (Q9NRL2 1430-1533 limits assumed): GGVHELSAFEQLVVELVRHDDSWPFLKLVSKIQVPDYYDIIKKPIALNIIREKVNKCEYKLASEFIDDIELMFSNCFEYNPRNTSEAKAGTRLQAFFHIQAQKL
Procedure: as §1, §2

BRD4(1) = target: T12, BRD4(1) (Homo sapiens, UniProt O60885); experiment: AlphaScreen peptide displacement assay (ALPHA), BRD4(1); type: binding
T12 construct: amplify the N-terminal bromodomain region of the protein; made in house

BAZ2A = target: T13, BAZ2A (Homo sapiens, UniProt Q9UIF9); experiment: ALPHA selectivity panel, BAZ2A; type: binding; details: 25 μM compound, ALPHA assay
T13 construct: the bromodomains from ATAD2, BAZ1A, BAZ2A, BAZ2B, BRD9, BRPF3, CECR2, GCN5L2, PHIP(1), PB1(1), and TIF1α; made in house
T13 sequence (Q9UIF9 1793-1897 limits assumed): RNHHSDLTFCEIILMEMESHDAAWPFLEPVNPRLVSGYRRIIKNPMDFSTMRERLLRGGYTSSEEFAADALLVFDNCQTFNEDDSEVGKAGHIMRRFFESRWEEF
Procedure: as §1, §2

[5] = viability after 72 h incubation using MTS

## CN1CCC(CNc2ccc3ncc(-c4cccc(OC(F)(F)F)c4)n3n2)CC1 [SGI-1176, SGI-1776]
MV4;11 (AML) cells
  IC50: 0.053 µM

## Cc1sc2c(c1C)C(c1ccc(Cl)cc1)=N[C@@H](CC(=O)OC(C)(C)C)c1nnc(C)n1-2 [(+)-JQ1, reference compound]
[1]; 72 h
  IC50: 2.1 µM
[2]; 72 h
  IC50: 2.9 µM

## Cc1noc(C)c1-c1cc(O)cc(C(O)c2ccccc2)c1 (stereo not shown) [Compound 8, 3-(3,5-Dimethylisoxazol-4-yl)-5-(hydroxy(phenyl)methyl)phenol]
PHIP(1)
  percentage inhibition of PHIP(1) bromodomain: little affinity
PHIP(1); read-out: percentage inhibition of PHIP(1) bromodomain
  inhibition at 25 µM: < 25%
BAZ2B
  percentage inhibition of BAZ2B bromodomain: little affinity
BAZ2B; read-out: percentage inhibition of BAZ2B bromodomain
  inhibition at 25 µM: < 25%
CECR2
  percentage inhibition of CECR2 bromodomain: little affinity
CECR2; read-out: percentage inhibition of CECR2 bromodomain
  inhibition at 25 µM: < 25%
BRPF3
  percentage inhibition of BRPF3 bromodomain: little affinity
BRPF3; read-out: percentage inhibition of BRPF3 bromodomain
  inhibition at 25 µM: < 25%
GCN5L2
  percentage inhibition of GCN5L2 bromodomain: little affinity
GCN5L2; read-out: percentage inhibition of GCN5L2 bromodomain
  inhibition at 25 µM: < 25%
ATAD2
  percentage inhibition of ATAD2 bromodomain: little affinity
ATAD2; read-out: percentage inhibition of ATAD2 bromodomain
  inhibition at 25 µM: < 25%
[3]
  effect on viability of A549 cells: markedly reduced the viability
TIF1α
  percentage inhibition of TIF1α bromodomain: little affinity
TIF1α; read-out: percentage inhibition of TIF1α bromodomain
  inhibition at 25 µM: < 25%
[1]; [5]
  IC50: 24 µM
PB1(1)
  percentage inhibition of PB1(1) bromodomain: little affinity
PB1(1); read-out: percentage inhibition of PB1(1) bromodomain
  inhibition at 25 µM: < 25%
[4]
  effect on viability of H1975 cells: markedly reduced the viability
CREBBP bromodomain
  inhibition at 25 µM: ~100%
BRD9
  percentage inhibition of BRD9 bromodomain: little affinity
BRD9; read-out: percentage inhibition of BRD9 bromodomain
  inhibition at 25 µM: < 25%
[2]; [5]
  IC50: 19 µM
BAZ1A
  percentage inhibition of BAZ1A bromodomain: little affinity
BAZ1A; read-out: percentage inhibition of BAZ1A bromodomain
  inhibition at 25 µM: < 25%
BRD4(1); 25 μM compound, ALPHA assay, read-out: inhibition of the BRD4(1) bromodomain
  inhibition at 25 µM: ~100%
BAZ2A
  percentage inhibition of BAZ2A bromodomain: little affinity
BAZ2A; read-out: percentage inhibition of BAZ2A bromodomain
  inhibition at 25 µM: < 25%

## CCOc1cc(-c2c(C)noc2C)cc(C(C)O)c1 (stereo not shown) [Compound 3]
BRD4(1); comparison of ALPHA IC50 values
  selectivity for BRD4(1) over CREBBP bromodomain: approximately 6 fold
BRD4(1); for BRD4(1)
  ligand efficiency: 0.39
  lipophilic ligand efficiency: 3.12
